Test results reported in patent US20260234157A1, “COMPOUND AND METHOD FOR TARGETED DEGRADATION OF ANDROGEN RECEPTOR” (Gan & Lee Pharmaceuticals Co., Ltd., priority 2023, published 2026).
Numbering of substitutions follows the chain as printed. Read-outs that look alike come from different tables or passages of the source.

How the values were obtained:
Assay type in all cases: cell-based
AR protein [1] = target: T1, AR protein (Homo sapiens, UniProt P10275, T878A); assay: Degradation of AR protein in LNCaP cells (Western blot); conditions: LNCaP cells, 8 hours, Western blot grayscale, GAPDH internal reference; for inhibition at 0.01 µM: compound 10 nM, read-out: Degradation rates of the AR protein in LNCaP cells, 10 nM (%); for inhibition at 0.1 µM: compound 100 nM, read-out: Degradation rates of the AR protein in LNCaP cells, 100 nM (%)
T1 construct: degradation activity of the compounds disclosed in the present disclosure on AR protein in LNCaP cells; host or cells: LNCaP FGC
T1 sequence (P10275 1-920 T878A): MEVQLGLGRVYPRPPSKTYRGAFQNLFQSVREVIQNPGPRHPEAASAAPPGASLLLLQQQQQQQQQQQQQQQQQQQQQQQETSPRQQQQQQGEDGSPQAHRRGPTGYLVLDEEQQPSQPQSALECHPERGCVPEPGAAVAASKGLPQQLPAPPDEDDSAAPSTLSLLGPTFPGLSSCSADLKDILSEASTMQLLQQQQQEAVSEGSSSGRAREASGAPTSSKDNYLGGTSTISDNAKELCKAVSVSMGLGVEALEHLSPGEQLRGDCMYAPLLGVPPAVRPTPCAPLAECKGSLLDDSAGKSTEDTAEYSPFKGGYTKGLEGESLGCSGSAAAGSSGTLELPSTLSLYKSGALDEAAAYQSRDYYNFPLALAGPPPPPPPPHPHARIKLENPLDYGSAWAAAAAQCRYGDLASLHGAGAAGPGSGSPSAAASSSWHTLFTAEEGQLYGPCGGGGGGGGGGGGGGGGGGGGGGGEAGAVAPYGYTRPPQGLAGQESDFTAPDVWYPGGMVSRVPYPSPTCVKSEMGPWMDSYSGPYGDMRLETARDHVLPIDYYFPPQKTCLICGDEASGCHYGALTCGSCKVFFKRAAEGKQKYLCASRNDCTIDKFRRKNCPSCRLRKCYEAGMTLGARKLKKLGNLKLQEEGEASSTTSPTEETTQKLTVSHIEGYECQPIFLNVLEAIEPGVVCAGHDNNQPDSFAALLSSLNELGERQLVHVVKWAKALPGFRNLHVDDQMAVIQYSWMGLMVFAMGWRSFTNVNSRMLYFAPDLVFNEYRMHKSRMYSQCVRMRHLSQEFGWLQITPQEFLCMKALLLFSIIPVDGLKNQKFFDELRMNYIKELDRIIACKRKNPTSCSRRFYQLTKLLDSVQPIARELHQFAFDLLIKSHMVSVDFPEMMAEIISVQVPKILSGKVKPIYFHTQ
Experimental: The degradation activity of the compounds disclosed in the present disclosure on AR protein in LNCaP cells (cell source: ATCC)
(§1) Corresponding solvent controls were also set and cultured for 8 hours. After 8 hours of cultivation, the culture medium was removed and the cells were washed with PBS. RIPA lysis buffer containing 1% Protease Inhibitor Cocktail was added, and the total protein extract was obtained by lysis and centrifugation. The protein concentration in the extract was detected by BCA method. Protein electrophoresis was performed using SDS-PAGE, followed by transfer of the protein onto a PVDF (Millipore Sigma catalog No. PSRP010R5) membrane at 100V constant voltage for 60 minutes. The PVDF membrane was then placed in a 1×TBST solution with 5% milk and blocked at room temperature for 1 hour. […] The primary antibody solution was discarded and the PVDF membrane was washed three times with 1×TBST for 5 minutes/time. […] The secondary antibody solution was discarded and the PVDF membrane was washed three times with 1×TBST for 5 minutes/time. Western blot imaging was performed by using a dual color infrared laser imaging system (Licor catalog No. Odyssey CLX). Bands were analyzed in grayscale using Image Studio software. For each sample, GAPDH protein bands were detected as internal reference. The degradation rates of the AR protein for the compounds and the positive control sample were calculated based on grayscale of the protein bands.

AR protein [2] = target: T2, AR protein (Homo sapiens, UniProt P10275); assay: Degradation of AR protein in VCaP cells (Western blot); conditions: 8 hours; for inhibition at 0.01 µM: read-out: Degradation rate of the AR protein in VCaP cells, 10 nM (%); for inhibition at 0.1 µM: read-out: Degradation rate of the AR protein in VCaP cells, 100 nM (%)
T2 construct: degradation activity of the compounds disclosed in the present disclosure on AR protein in VCaP cells; host or cells: VCaP
T2 sequence (P10275 1-920): T1 sequence (P10275 1-920 T878A) with A878T
Experimental: The degradation activity of the compounds disclosed in the present disclosure on AR protein in VCaP cells (cell source: ATCC)
as §1

LNCaP FGC cells = assay: Inhibition of proliferation of LNCaP cells (WST-8); conditions: LNCaP FGC cells, 96 hours, WST-8 absorbance at 450 nm, read-out: IC50 for inhibiting the proliferation of LNCaP cells
Experimental: The cells were cultured in a cell culture incubator with 5% CO2 at 37° C. overnight. […] On the sixth day, 96 well plates were taken out, and 20 μL of WST-8 (Beytime, C0040) reagent was added to each well.

Row | Structure (SMILES) | inhibition at 0.01 µM (AR protein [1]) [%] | inhibition at 0.1 µM (AR protein [1]) [%] | inhibition at 0.01 µM (AR protein [2]; compound at 10 nM) [%] | inhibition at 0.1 µM (AR protein [2]; compound at 100 nM) [%] | IC50 (LNCaP FGC cells; Homo sapiens, LNCaP, 96 h) [nM] | Degradation rate of the AR protein in VCaP cells, 10 nM (%) (AR protein [2]; compound at 10 nM) | Degradation rate of the AR protein in VCaP cells, 100 nM (%) (AR protein [2]; compound at 100 nM) | IC50 (LNCaP FGC cells) [nM]
1 | N#Cc1ccc(O[C@H]2CC[C@H](NC(=O)c3ccc(N4CC5(CCC(N6CCC7(CCc8ccc9c(c8O7)CN(C7CCC(=O)NC7=O)C9=O)CC6)CC5)C4)nn3)CC2)cc1Cl (some centres unmarked) [Compound 153] | 23 | 19 | 35 | 76 | 13600 |  |  | 
2 | N#Cc1ccc(O[C@H]2CC[C@H](NC(=O)c3ccc(N4CCC(F)(CN5CCC6(CCc7ccc8c(c7O6)CN(C6CCC(=O)NC6=O)C8=O)CC5)CC4)nn3)CC2)cc1Cl (some centres unmarked) [Compound 166] | 36 | 19 | 43 | 60 |  | 15 | 42 | 71800
3 | N#Cc1ccc(O[C@H]2CC[C@H](NC(=O)c3ccc(N4CCC5(CC4)CC(N4CCC6(CC4)COc4c(ccc7c4C(=O)N(C4CCC(=O)NC4=O)C7)C6)C5)nn3)CC2)cc1Cl (some centres unmarked) [Compound 188] | 68 | 66 | 63 | 79 | 3720 |  |  | 
4 | N#Cc1ccc(O[C@H]2CC[C@H](NC(=O)c3ccc(N4CCC5(CCC(N6CCC7(CC6)COc6c(ccc8c6C(=O)N(C6CCC(=O)NC6=O)C8)C7)CC5)CC4)nn3)CC2)cc1Cl (some centres unmarked) [Compound 190] | 53 | 75 |  |  | 5150 |  |  | 
5 | N#Cc1ccc(O[C@H]2CC[C@H](NC(=O)c3ccc(N4CCC5(CC4)COc4c5ccc5c4CN(C4CCC(=O)NC4=O)C5=O)nn3)CC2)cc1Cl (some centres unmarked) [Compound 200] | 44 | 27 | 25 | 57 | 91000 |  |  | 
6 | N#Cc1ccc(O[C@H]2CC[C@H](NC(=O)c3ccc(N4CCC(F)(CN5CCC6(CC5)COc5c6ccc6c5CN(C5CCC(=O)NC5=O)C6=O)CC4)nc3)CC2)cc1Cl (some centres unmarked) [Compound 216] |  |  | 54 | 80 | 6 |  |  | 
7 | COc1cc(O[C@H]2C(C)(C)[C@H](NC(=O)c3ccc(N4CCC(CN5CCC6(CC5)COc5c6ccc6c5CN(C5CCC(=O)NC5=O)C6=O)(OC)CC4)cc3)C2(C)C)ccc1C#N (some centres unmarked) [Compound 217] | -2 | 48 | 49 | 83 | 5 |  |  | 
8 | CC1(CN2CCC3(CC2)COc2c3ccc3c2CN(C2CCC(=O)NC2=O)C3=O)CCN(c2ccc(C(=O)N[C@H]3C(C)(C)[C@H](Oc4ccc(C#N)c(Cl)c4)C3(C)C)cc2)CC1 (some centres unmarked) [Compound 222] | 4 | 75 | 8 | 61 | 880 |  |  | 
9 | COc1cc(O[C@H]2C(C)(C)[C@H](NC(=O)c3ccc(N4CCC(F)(CN5CCC6(CC5)COc5c6ccc6c5CN(C5CCC(=O)NC5=O)C6=O)CC4)cc3)C2(C)C)ccc1C#N (some centres unmarked) [Compound 223] | 27 | 20 | -3 | 52 | 9 |  |  | 
10 | COc1cc(O[C@H]2C(C)(C)[C@H](NC(=O)c3ccc(N4CCC(C#N)(CN5CCC6(CC5)COc5c6ccc6c5CN(C5CCC(=O)NC5=O)C6=O)CC4)nn3)C2(C)C)ccc1C#N (some centres unmarked) [Compound 224] | 41 | 52 | 24 | 57 | 11 |  |  | 
11 | CC1(C)[C@H](NC(=O)c2ccc(N3CCC(C#N)(CN4CCC5(CC4)COc4c5ccc5c4CN(C4CCC(=O)NC4=O)C5=O)CC3)nn2)C(C)(C)[C@H]1Oc1ccc(C#N)c(Cl)c1 (some centres unmarked) [Compound 225] | -35 | 7 | -29 | 30 | 30 |  |  | 
12 | N#Cc1ccc(O[C@H]2CC[C@H](NC(=O)c3ccc(N4CC[C@H](CN5CCC6(CC5)COc5c6ccc6c5CN(C5CCC(=O)NC5=O)C6=O)[C@H](F)C4)nn3)CC2)cc1Cl (some centres unmarked) [Compound 226] | 52 | 34 | 74 | 83 | 2.5 |  |  | 
13 | COc1cc(OC2CCC(NC(=O)c3cnc(N4CCC(C)(CN5CCC6(CC5)COc5c6ccc6c5CN(C5CCC(=O)NC5=O)C6=O)CC4)nc3)CC2)ccc1C#N (centres unmarked) [Compound 247] | -10 | 27 | 53 | 70 | 15 |  |  | 
14 | N#Cc1ccc(O[C@H]2CC[C@H](NC(=O)c3ccc(C#CC4CC5(C4)CC(N4CCC6(CC4)COc4c6ccc6c4CN(C4CCC(=O)NC4=O)C6=O)C5)nn3)CC2)cc1Cl (some centres unmarked) [Compound 252] | 56 | 70 | 80 | 87 | 6240 |  |  | 
15 | COc1cc(O[C@H]2C(C)(C)[C@H](NC(=O)c3ccc(N4CCC(CN5CCC6(CCc7ccc8c(c7O6)CN(C6CCC(=O)NC6=O)C8=O)CC5)CC4)cc3)C2(C)C)ccc1C#N (some centres unmarked) [Compound 298] | 27 | 55 |  |  | 12100 |  |  | 
